According to patent US7247649B2, “Oxazoles, their manufacture and use as pharmaceutical agents” (Hoffmann-La Roche Inc., priority 2003, dated 2007):

How the values were obtained:
[1] = tested on: A549 cells (human lung carcinoma cell line); assay: A549 MTT cell proliferation assay (HER-signalling pathway inhibitors); assay type: cell-based; conditions: for IC50: Homo sapiens, A549 cells, 5 days (120 h) incubation, MTT readout at 550 nm, 3 μM to 0.15 nM; for activity (in words): reference compound in the A549 biological assay
Method: A549 cells (human lung carcinoma cell line) were cultivated in RPMI 1640, 2.5% FCS, 2 mM Glutamine, 100 u/ml Penicillin, 100 μg/ml Streptomycin. For the assay the cells were seeded in 384 well plates, 900 cells per well, in the same medium. The next day compounds (dissolved 10 mM in DMSO) were added in various concentrations ranging from 3 μM to 0.15 nM (10 concentrations, 1:3 diluted). After 5 days the MTT assay was done mainly according to the instructions of the manufacturer (Cell proliferation kit I, MTT, from Roche Molecular Biochemicals). In brief: MTT labeling reagent was added to a final concentration of 0.5 mg/ml, added and incubated for 4 hrs at 37 C, 5% CO2. During this incubation time purple formazan crystals are formed. After addition of the solubilization solution (20% SDS in 0.02 M HCl) the plates were incubated overnight at 37° C., 5% CO2. After careful mixing plates were measured in Victor 2 (scanning multiwell spectrophotometer, Wallac) at 550 nm.
A decrease in number of living cells results in a decrease in the total metabolic activity in the sample. The decrease directly correlates to the amount of purple color resulting from the solubilization of the purple formazan crystals.
A549: 900 cells in 60 μl per well of 384 well plate (Greiner)
Medium: RPMI 1640, 2.5% FCS, glutamine, pen/strep.
Induction: • Dilution of compound in DMSO: 3 μl 10 mM+27 μl DMSO, dilute 1:3 • Add 2 μl of compound dilution row to 95 ul of medium • Add 10 μl of compound dilution to 60 μl medium in test plate→0.3% DMSO per well • Incubate 120 h (5 days) at 37° C., 5% CO2
Analysis: • Add 7 μl MTT (5 mg 7 ml/well), incubate 4 h at 37° C. • Add 30 μl lysis buffer (20% SDS, 0.04 N HCl) per well • Incubate overnight at 37° C.
Measurement: • Victor 2, 550 nm • Determination of IC50 was done using XL-fit.

| SMILES | IC50 [1] | melting point | activity (in words) [1] |
| --- | --- | --- | --- |
| Fc1cc(C(F)(F)F)ccc1/C=C/c1nc(COc2ccc(CCCCn3ccnn3)cc2)co1 [Example 3, 1-[4-(4-{2-[2-(E)-(2-Fluoro-4-trifluoromethyl-phenyl)-vinyl]-oxazol-4-ylmethoxy}-phenyl)-butyl]-1H-[1,2,3]triazole] | 0.002 µM | – | – |
| FC(F)(F)c1cccc(/C=C/c2nc(COc3ccc(CCCCn4ccnn4)cc3)co2)c1 [Example 4, 1-[4(4-{2-[2-(E)-(3-Trifluoromethyl-phenyl)-vinyl]-oxazol-4-ylmethoxy}-phenyl)-butyl]-1H-[1,2,3]triazole] | 3.55 µM | – | inactive |
| FC(F)(F)c1ccc(C=Cc2nc(COc3ccc(CCCCn4ccnn4)cc3)co2)cc1 [reference, 1-[4-(4-{2-[2-(4-trifluoromethyl-phenyl)-vinyl]-oxazol-4-ylmethoxy}-phenyl)-butyl]-1H-[1,2,3]triazole, reference compound] | 0.007 µM | – | less activity than the compounds of the present invention |

Continued, in another order:

| IC50 [1] | melting point | SMILES | activity (in words) [1] |
| --- | --- | --- | --- |
| 0.9 µM | – | Clc1ccc(/C=C/c2nc(COc3ccc(CCCCn4ccnn4)cc3)co2)cc1Cl [Example 5, 1-[4-(4-{2-[2-(E)-(3,4-Dichloro-phenyl)-vinyl]-oxazol-4-ylmethoxy}-phenyl)-butyl]-1H-[1,2,3]triazole] | do not have reasonable activity |
| 0.46 µM | 146 to 149 °C | Fc1cc(/C=C/c2nc(COc3ccc(CCCCn4ccnn4)cc3)co2)ccc1Cl [Example 1, 1-[4-(4-{2-[2-(E)-(4-Chloro-3-fluoro-phenyl)-vinyl]-oxazol-4-ylmethoxy}-phenyl)-butyl]1H-[1,2,3]triazole] | do not have reasonable activity |
| < 0.005 µM | – | Fc1cc(Cl)ccc1/C=C/c1nc(COc2ccc(CCCCn3ccnn3)cc2)co1 [Example 2, 1-[4-(4-{2-[2-(E)-(4-Chloro-2-fluoro-phenyl)-vinyl]-oxazol-4-ylmethoxy}-phenyl)-butyl]-1H-[1,2,3]triazole] | – |
